From patent US9637447B2, “Lauflumide and the enantiomers thereof, method for preparing same and therapeutic uses thereof” (priority 2011, dated 2017)
Read-outs that look alike come from different tables or passages of the source.

Key:
young Wistar rats [1] = experiment: T-maze test of waiting ability (ADHD model, impulsivity); format: in vivo, rat; settings: for waiting ability in the T-maze test compared to the control: administered before the test, mazindol 1, 3, 10 mg/kg intraperitoneally, lauflumide 64, 128 mg/kg orally, D-lauflumide 64, 128, 256 mg/kg orally; for improving waiting ability, effectiveness versus methylphenidate and d-amphetamine / improving waiting ability, effectiveness versus modafinil: T-maze; for improving waiting ability, effectiveness versus methylphenidate and d-amphetamine: methylphenidate 3 mg/kg, d-amphetamine 1 mg/kg intraperitoneally; for improving waiting ability, effectiveness versus modafinil: modafinil 64 and 128 mg/kg orally
Text: The test of waiting ability in a T-maze consists in offering a rat a choice between a quick and immediate food reward and a large but delayed reward. In adult Wistar rats, numerous antidepressants such as serotonin or noradrenalin reuptake inhibitors increase the number of choices for the large but delayed reward, indicating an improvement in waiting ability, i.e., a decrease in impulsivity.
The goal of the present study is to examine whether lauflumide in the form of its racemic mixture or its D form ((+) enantiomer), administered in 3 doses before the test, improves waiting ability in young Wistar rats subjected to the T-maze test. An improvement in waiting ability by this compound would indicate that this compound reduces impulsivity and, consequently, could be useful in the treatment of ADHD. Methylphenidate and d-amphetamine are used as a reference product in the same experiment.
Male Wistar AF rats (Centre d′Elevage Rene Janvier, France) are used, aged 22 days at the beginning of the experiment and between 30 and 42 days at the time the molecules are administered.
The experiments were carried out in two identical T-mazes (FIG. 1) made of opaque gray plastic tubes (inner diameter: 7.5 cm), consisting of a starting alley (30 cm long), a transparent plastic box, (10 cm wide, 10 cm deep and 10 cm high) and two arms (35 cm long) each leading to a rectangular black plastic box (18 cm wide, 30 cm deep, 10 cm high). The removable, gray plastic guillotine doors can be inserted in vertical slots located at the entrance to the starting alley and at the end of each arm. One of the goal boxes (left or right, depending on the rat) is continuously provided with a large reward, the other with a small reward. The large and small rewards consist of 5 and 1 pellets, respectively (20 mg, Technical & Scientific Equipment GMBH, Germany). The pellets are placed in a translucent cup before each test.
The T-maze test is a validated test which makes it possible, by extrapolation to man, to verify the effectiveness of pharmacological agents effective in ADHD.
1st phase: habituation. The animals are first subjected to 2 to 6 habituation sessions of 5 minutes each. The rat is gently placed in the starting alley, which is then closed off by a guillotine door inserted in the slot (reference c0 in FIG. 1). The animal is allowed to freely explore the device and to eat the rewards placed in the cups.
2nd phase: pre-training. A door is placed in slot c2 near each goal box and then the rat is placed in the starting alley. When it enters one of the two arms, a door is inserted behind it in slot c1 near the choice point and the door placed in slot c2 is removed. Once the animal enters the goal box, the door is replaced in slot c2. The rat is removed from the goal box as soon as it eats the pellets. The animal is then returned to its cage for 2 to 3 minutes. One to three times per day, each rat is subjected to five test sessions. In four to 12 sessions, the rat chooses the arm leading to the large reward in more than 80% of the tests. The training phase then begins.
3rd phase: training. During training the rats 1 to 4 times/day undergo sessions of 5 tests during which a delay is introduced before access to the large reward is granted. After a door is placed in slot c2 near each goal box, the rat is placed in the starting alley. When it enters one of the two arms, a second door is inserted behind it in slot c1 near the choice point, so that the rat choosing the training arm with the large reward can be held in this arm for 30 seconds—the waiting period—before having access to the reinforcement. If not, if the animal chooses the arm leading to the small reward, the door placed in slot c2 is immediately removed, allowing the animal to enter the goal box. The testing of the drugs begins when the animal chooses the large reward delayed by 30 seconds in 2 tests in 5 (or fewer) during two consecutive sessions and in 1 test in 5 (or fewer) in the following session. […]

[2] = Comparative effectiveness stated in the description (no method given)
young Wistar rats [3] = settings: cited from earlier work; for waiting ability in the T-maze test: young rats

NC(=O)C[S+]([O-])C(c1ccc(F)cc1)c1ccc(F)cc1 (racemic) [Lauflumide]
waiting ability in the T-maze test compared to the control (young Wistar rats [1]): improve waiting ability
effectiveness relative to adrafinil [2]: 20 times
effectiveness relative to modafinil [2]: 4 times

OC1(c2ccc(Cl)cc2)c2ccccc2C2=NCCN21 (centres unmarked) [Mazindol, mazindol]
improving waiting ability, effectiveness versus methylphenidate and d-amphetamine (young Wistar rats [1]): at least as effective as methylphenidate and d-amphetamine
improving waiting ability, effectiveness versus modafinil (young Wistar rats [1]): more effective than modafinil
waiting ability in the T-maze test compared to the control (young Wistar rats [1]): improve waiting ability

COC(=O)C(c1ccccc1)C1CCCCN1 (centres unmarked) [methylphenidate]
number of choices for the large but delayed reward (young Wistar rats [3]; adult Wistar rats, spontaneously hypertensive rats (SHR) and Wistar Kyoto (WKY) rats): not
number of choices for the large but delayed reward (young Wistar rats [3]; young Wistar rats): increases the number of choices for the large but delayed reward
waiting ability in the T-maze test (young Wistar rats [3]): improved waiting ability

NC(=O)C[S@@+]([O-])C(c1ccc(F)cc1)c1ccc(F)cc1 [D-Lauflumide]
improving waiting ability, effectiveness versus methylphenidate and d-amphetamine (young Wistar rats [1]): at least as effective as methylphenidate and d-amphetamine
improving waiting ability, effectiveness versus modafinil (young Wistar rats [1]): more effective than modafinil
waiting ability in the T-maze test compared to the control (young Wistar rats [1]): improve waiting ability
effectiveness versus the racemic mixture of lauflumide [2]: more effective than the racemic mixture of lauflumide

CNCCCN1c2ccccc2CCc2ccccc21 [desipramine]
waiting ability in the T-maze test (young Wistar rats [3]): improved waiting ability

CNCC[C@@H](Oc1ccccc1C)c1ccccc1 [atomoxetine]
waiting ability in the T-maze test (young Wistar rats [3]): improved waiting ability

Clc1cccc(Cl)c1N=C1NCCN1 [clonidine]
waiting ability in the T-maze test (young Wistar rats [3]): improved waiting ability

CC(N)Cc1ccccc1 (racemic) [amphetamine, D,L-amphetamine]
waiting ability in the T-maze test (young Wistar rats [3]): improved waiting ability
